The source of these data is patent US20030125264A1, “Methods For Treating Wounds” (Kimberly-Clark Worldwide, Inc., priority 2001, published 2003).

This assay relates to human foreskin fibroblasts (ATCC cell line CRL-2522). As to the kind of experiment: proliferative response of human skin fibroblasts to flavonoids (96-well, Cell Titer 96 Aqueous One, absorbance 490 nm). The format is cell-based. To be noted: for difference in cell proliferation between controls and test compound (one-way ANOVA): P<0.01 and 0.05, vehicle control 0.1% DMSO in DMEM, n=6; for cell proliferating effect on human skin fibroblasts: at lower concentrations (samples tested at 10^-4, 10^-5 and 10^-6 M; 28 hours, serum-free DMEM, 0.1% DMSO, n=6). Here is the method: The proliferative response of flavonoids to the human skin fibroblast cell line (ATCC, Manassas, Va., cell line CRL-2522 human foreskin fibroblast) was determined in a 96-well assay system using serum-free medium as a control. Stock solutions of flavonoids were prepared as 1.0 mole/L solutions in Dimethyl sulfoxide (DMSO, Sigma Chemical Company, St. Louis, Mo.) then diluted with Dulbecco's Modified Eagle's Medium (DMEM, Sigma Chemical Co., St. Louis, Mo.) to 10^−4, 10^−5, and 10^−6 M solutions with a final DMSO concentration of 0.1% (v:v). Cells were seeded into 96 well plates at a concentration of 2×10^3 cells in 100 μl of DMEM containing 10% fetal bovine serum (FBS, Sigma Chemical Co., St. Louis, Mo.). Plates were incubated for 24 hours at 37° C. in a humidified, 5% CO2 atmosphere. After incubation, the medium was aspirated and the wells were rinsed twice with 100 μl of serum-free DMEM. The final rinse was aspirated and 100 μl of the 10^−4-10^−6 M of each solution was added to 6 wells. In addition, 100 μl of vehicle (serum free DMEM with DMSO at 0.1% v:v) was added to 6 wells as control. In addition, duplicate wells of each test and control solution were placed in wells without the human fibroblast cells to serve as blanks for each treatment. All wells were incubated for 28 hours at 37° C. in a humidified, 5% CO2 atmosphere. After incubation, 20 μl of Cell Titer 96 Aqueous One Solution Reagent (Promega, Corp., Madison, Wis.) was added to all wells. The plates were swirled gently and place back in the incubator for 45 minutes and spectrophotometric absorbance was read at 490 nm. Absorbance of the wells without cells was subtracted from the absorbance of the wells with cells to give the true absorbance. Various compounds of present invention were tested for their cell proliferating effect on human skin fibroblasts. The effect of flavonoids naringin and quercetin on cell proliferation in human foreskin fibroblasts (ATCC cell line CRL-2522) was measured and data is presented in FIG. 1. The control and all test materials contained a final concentration of 0.1% DMSO in DMEM with n=6. Sample concentrations were 10^−4, 10^−5 and 10^−6 M. Statistical analysis was done by using one-way ANOVA.

As for `C[C@@H]1O[C@@H](O[C@H]2[C@H](Oc3cc(O)c4c(c3)O[C@H](c3ccc(O)cc3)CC4=O)O[C@H](CO)[C@@H](O)[C@@H]2O)[C@H](O)[C@H](O)[C@H]1O` [naringin], the “difference in cell proliferation between controls and test compound (one-way ANOVA)” value was “Statistically significant difference”; the “cell proliferating effect on human skin fibroblasts” value is “good cell proliferating agents”.
Consider `O=c1c(O)c(-c2ccc(O)c(O)c2)oc2cc(O)cc(O)c12` [quercetin], for which the “difference in cell proliferation between controls and test compound (one-way ANOVA)” value was “Statistically significant difference”; the “cell proliferating effect on human skin fibroblasts” value is reported as “good cell proliferating agents”. Also, the “cell growth relative to the control” value (at higher concentrations (samples tested at 10^-4, 10^-5 and 10^-6 M; 28 hours, serum-free DMEM, 0.1% DMSO, n=6)) is recorded as “appears to show cell inhibition”.
